# Measurements reported in patent publication US10882838B2, “Cannabinergic compounds and uses thereof” (Northeastern University, priority 2012, dated 2021).
# pKi: −log10 of the molar value. Where two headings read alike, the source gives them in different places.
# Assays:
# CB1 receptor = CB1 receptor (Rattus norvegicus (Rat), UniProt P20272); test: rCB1 competition-equilibrium binding with [3H]CP-55,940, rat brain membranes
# Procedure: Frozen rat brains (CB1 source) are obtained from Pel-Freeze Biologicals (Rogers, Ak.) and stored at −80° C. until use. Membranes are prepared according to the method described by Dodd et al. and used in our laboratory as reported.
# (§1) All the cannabinoids discussed in this invention are tested for their ability to bind to CB1 and CB2 receptors using membranes from rat brain or HEK293 cells expressing either mCB2 or hCB2, respectively via competition-equilibrium binding using [^3H]CP-55,940. Results are analyzed using nonlinear regression to determine ligand IC50 (Prism by GraphPad Software, Inc.), and Ki values are calculated from the IC50. IC50 and Ki values are determined from at least three independent experiments.
# mCB2 receptor = mCB2 receptor (Mus musculus (Mouse), UniProt P47936); test: mCB2 competition-equilibrium binding with [3H]CP-55,940, membranes of HEK293 cells expressing mCB2
# Procedure: (§2) HEK293 cells expressing hCB1 or hCB2 or mCB2 receptor are used for membrane preparations according to Abadji et al. The resulting pellet is resuspended in 10 mM Tris-chloride, pH 7.4, with 5 mM MgCl2 and 2 mM EDTA (TME), rapidly frozen in liquid nitrogen and stored at −80° C. for no longer than two months. Protein content is assayed by using the Bio-Rad protein assay according to the manufacturer's protocol.
# as §1
# hCB2 receptor = hCB2 receptor (Homo sapiens (Human), UniProt P34972); test: hCB2 competition-equilibrium binding with [3H]CP-55,940, membranes of HEK293 cells expressing hCB2
# Procedure: as §2, §1
# [1] = rat brain membranes, [3H]CP-55,940, read-out: rCB1 Ki
# [2] = HEK293 cells expressing mCB2, [3H]CP-55,940, read-out: mCB2 Ki
# [3] = HEK293 cells expressing hCB2, [3H]CP-55,940, read-out: hCB2 Ki
Compound,pKi (CB1 receptor),pKi (mCB2 receptor),pKi (hCB2 receptor),pKi (CB1 receptor; [1]),pKi (mCB2 receptor; [2]),pKi (hCB2 receptor; [3])
"CC1=CC[C@H]2[C@@H](C1)c1c(O)cc(C(C)(C)C(=O)O)cc1OC2(C)C [Compound 1.1, 2-((6aS,10aR)-6a,7,10,10a-tetrahydro-1-hydroxy-6,6,9-trimethyl-6H-benzo[c]chromen-3-yl)-2-methylpropanoic Acid]",< 5.00,< 5.00,< 5.00,,,
"CCCCOC(=O)C(C)(C)c1cc(O)c2c(c1)OC(C)(C)[C@H]1CC=C(C)C[C@@H]21 [Compound 1.4, Butyl-2-((6aS, 10aR)-6a, 7, 10, 10a-tetrahydro-1-hydroxy-6,6,9-trimethyl-6H-benzo[c]chromen-3-yl)-2-methylpropanoate]",,,,9.22,9.22,9.15
"CC1=CC[C@H]2[C@@H](C1)c1c(O)cc(C(C)(C)C(=O)OCCCCCBr)cc1OC2(C)C [Compound 1.5, 5-bromopentyl-2-((6aS,10aR)-6a,7,10,10a-tetrahydro-1-hydroxy-6,6,9-trimethyl-6H-benzo[c]chromen-3-yl)-2-methylpropanoate]",,,,8.92,9.30,9.22
"CC1=CC[C@@H]2[C@@H](C1)c1c(O)cc(C(C)(C)C(=O)OCCCBr)cc1OC2(C)C [Compound 1.7, 3-bromopropyl-2-((6aR, 10aR)-6a, 7, 10, 10a-tetrahydro-1-hydroxy-6,6,9-trimethyl-6H-benzo[c]chromen-3-yl)-2-methylpropanoate]",,,,9.10,8.96,9.22
"CC1=CC[C@@H]2[C@@H](C1)c1c(O)cc(C(C)(C)C(=O)OCCCC#N)cc1OC2(C)C [Compound 1.8, 3-cyanopropyl-2-((6aR,10aR)-6a,7,10,10a-tetrahydro-1-hydroxy-6,6,9-trimethyl-6H-benzo[c]chromen-3-yl)-2-methylpropanoate]",,,,9.30,9.15,8.85
"CC1=CC[C@@H]2[C@@H](C1)c1c(O)cc(C(C)(C)C(=O)OCCCN=[N+]=[N-])cc1OC2(C)C [Compound 1.9, 3-azidopropyl-2-((6aR,10aR)-6a,7,10,10a-tetrahydro-1-hydroxy-6,6,9-trimethyl-6H-benzo[c]chromen-3-yl)-2-methylpropanoate]",,,,9.00,9.15,9.10
"CC1=CC[C@@H]2[C@@H](C1)c1c(O)cc(C(C)C(=O)O)cc1OC2(C)C (stereo partly drawn) [Compound 1.11, 2-((6aR,10aR)-1-hydroxy-6,6,9-trimethyl-6a,7,10,10a-tetrahydro-6H-benzo[c]chromen-3-yl)propanoic acid]",,,,< 5.00,< 5.00,< 5.00
"CC1=CC[C@@H]2[C@@H](C1)c1c(O)cc([C@@H](C)C(=O)O)cc1OC2(C)C [Compound 1.13, (R)-2-((6aR,10aR)-1-hydroxy-6,6,9-trimethyl-6a,7,10,10a-tetrahydro-6H-benzo[c]chromen-3-yl)propanoic Acid]",,,,< 5.00,< 5.00,< 5.00
"CC1=CC[C@@H]2[C@@H](C1)c1c(O)cc([C@H](C)C(=O)O)cc1OC2(C)C [Compound 1.15, (S)-2-((6aR,10aR)-1-hydroxy-6,6,9-trimethyl-6a,7,10,10a-tetrahydro-6H-benzo[c]chromen-3-yl)propanoic Acid]",,,,< 5.00,< 5.00,< 5.00
"CC1=CC[C@@H]2[C@@H](C1)c1c(O)cc(C3(C(=O)O)CCC3)cc1OC2(C)C [Compound 1.17, 1-((6aR,10aR)-1-hydroxy-6,6,9-trimethyl-6a,7,10,10a-tetrahydro-6H-benzo[c]chromen-3-yl)cyclobutanecarboxylic Acid]",,,,< 5.00,< 5.00,< 5.00
"CC1=CC[C@@H]2[C@@H](C1)c1c(O)cc(C3(C(=O)OCCCCN=[N+]=[N-])CCC3)cc1OC2(C)C [Compound 1.21, 4-azidobutyl 1-((6aR,10aR)-1-hydroxy-6,6,9-trimethyl-6a,7,10,10a-tetrahydro-6H-benzo[c]chromen-3-yl)cyclo Butanecarboxylate]",,,,9.05,8.72,8.57
"CCCCCCC(O)(CC(=O)O)c1cc(O)c2c(c1)OC(C)(C)[C@@H]1CC=C(C)C[C@@H]21 (stereo partly drawn) [Compound 1.22, 3-hydroxy-3-((6aR,10aR)-1-hydroxy-6,6,9-trimethyl-6a,7,10,10a-tetrahydro-6H-benzo[c]chromen-3-yl)nonanoic Acid]",,,,6.22,6.00,6.00
"CCCCCCC1(c2cc(O)c3c(c2)OC(C)(C)[C@@H]2CC=C(C)C[C@@H]32)CC(=O)O1 (stereo partly drawn) [Compound 1.23, 4-hexyl-4-((6aR,10aR)-1-hydroxy-6,6,9-trimethyl-6a,7,10,10a-tetrahydro-6H-benzo[c]chromen-3-yl)oxetan-2-one]",7.80,7.39,7.26,,,
"CC1=CC[C@@H]2[C@@H](C1)c1c(O)cc(CC(=O)O)cc1OC2(C)C [Compound 1.26, 2-((6aR,10aR)-6a,7,10,10a-tetrahydro-1-hydroxy-6,6,9-trimethyl-6H-benzo[c]chromen-3-yl)acetic Acid]",,,,< 5.00,< 5.00,< 5.00
"CCCSC(=O)C(C)(C)c1cc(O)c2c(c1)OC(C)(C)[C@@H]1CC=C(C)C[C@@H]21 [Compound 1.30, S-propyl-2-((6aR,10aR)-6a,7,10,10a-tetrahydro-1-hydroxy-6,6,9-trimethyl-6H-benzo[c]chromen-3-yl)-2-methylpropanethioate]",,,,9.30,,9.15
"CCCCCNC(=O)C(C)(C)c1cc(O)c2c(c1)OC(C)(C)[C@@H]1CC=C(C)C[C@@H]21 [Compound 1.31, 2-((6aR,10aR)-6a,7,10,10a-tetrahydro-1-hydroxy-6,6,9-trimethyl-6H-benzo[c]chromen-3-yl)-2-methyl-N-pentylpropanamide]",,,,8.20,8.04,8.55
"CC1=CC[C@@H]2[C@@H](C1)c1c(O)cc(C(C)(C)CO)cc1OC2(C)C [Compound 1.32, (6aR,10 aR)-3-(1-hydroxy-2-methylpropan-2-yl)-6,6,9-trimethyl-6a,7,10,10a-tetrahydro-6H-benzo[c]chromen-1-ol]",,,,6.35,,
"CCCCC(=O)OCC(C)(C)c1cc(O)c2c(c1)OC(C)(C)[C@@H]1CC=C(C)C[C@@H]21 [Compound 1.33, 2-((6aR, 10aR)-6a,7,10,10a-tetrahydro-1-hydroxy-6,6,9-trimethyl-6H-benzo[c]chromen-3-yl)-2-methyl propylpentanoate]",,,,9.30,,9.00
"CCOC(=O)C(C)(C)c1cc(O)c2c(c1)OC(C)(C)[C@@H]1CC=C(C)C[C@@H]21 [Compound 1.35, Ethyl-2-((6aR,10aR)-6a,7,10,10a-tetrahydro-1-hydroxy-6,6,9-trimethyl-6H-benzo[c]chromen-3-yl)-2-methylpropanoate]",,,,8.57,9.30,8.82
"CC1=CC[C@@H]2[C@@H](C1)c1c(O)cc(C(C)(C)C(=O)OCCBr)cc1OC2(C)C [Compound 1.36, 2-bromoethyl-2-((6aR,10aR)-6a,7,10,10a-tetrahydro-1-hydroxy-6,6,9-trimethyl-6H-benzo [c]chromen-3-yl)-2-methylpropanoate]",,,,8.54,8.49,8.11
"CC(C)(C(=O)O)c1cc(O)c2c(c1)OC(C)(C)[C@@H]1CC=C(CO)C[C@@H]21 [Compound 2.1, 2-((6aR, 10aR)-6a,7,10,10a-tetrahydro-1-hydroxy-9-(hydroxymethyl)-6,6-dimethyl-6H-benzo[c]chromen-3-yl)-2-methylpropanoic Acid]",,,,< 5.00,< 5.00,< 5.00
"CC1(C)Oc2cc(CC(=O)O)cc(O)c2[C@@H]2CC(=O)CC[C@H]21 [Compound 3.1, 2-((6aR,10aR)-6a,7,8,9,10,10a-hexahydro-1-hydroxy-6,6-dimethyl-9-oxo-6H-benzo[c]chromen-3-yl)acetic acid]",,,,< 5.00,< 5.00,< 5.00
"CCCCOC(=O)Cc1cc(O)c2c(c1)OC(C)(C)[C@@H]1CCC(=O)C[C@@H]21 [Compound 3.2, Butyl-2-((6aR,10aR)-6a,7,8,9,10,10a-hexahydro-1-hydroxy-6,6-dimethyl-9-oxo-6H-benzo[c]chromen-3-yl)acetate]",,,,6.00,6.00,6.00
"CCCCCCC(C)(C)c1cc(O)c2c(c1)OC(C)(C)[C@@H]1CCOC(=O)C[C@@H]21 [Compound 3.11, (5 aR,11bR)-11-hydroxy-6,6-dimethyl-9-(2-methyloctan-2-yl)-4,5,5a,6-tetrahydro-1H-oxepino[4,5-c]chromen-2(11bH)-one]",,,,7.00,6.10,
"CCOC(=O)C(C)(C)c1cc(O)c(-c2cccc(C#N)c2)c(O)c1 [Compound 4.2, Ethyl 2-(3′-cyano-2,6-dihydroxybiphenyl-4-yl)-2-methylpropanoate]",,,,5.44,,7.02
"CCOC(=O)C(C)(C)c1cc(O)c(-c2cc(Cl)cc(Cl)c2)c(OC)c1 [Compound 4.7, ethyl 2-(3′,5′-dichloro-2-hydroxy-6-methoxybiphenyl-4-yl)-2-methylpropanoate]",,,,6.00,,6.15
"CCOC(=O)C(C)(C)c1cc(O)c(-c2cc(Cl)cc(Cl)c2)c(O)c1 [Compound 4.8, Ethyl 2-(3′,5′-dichloro-2,6-dihydroxybiphenyl-4-yl)-2-methylpropanoate]",,,,,,7.68
